Assay results from patent US20220017877A1, “BILIRUBIN OXIDASE ACTIVITY IMPROVING METHOD, AND BILIRUBIN OXIDASE PRODUCT” (OZEKI CORPORATION, priority 2018, published 2022).
Structures can show the parent of a compound that is named as a salt.

What was measured:
[1] = ABTS initial absorbance (A436) reduction rate (Test Example 3); assay type: physicochemical; conditions: for A436 reduction rate (%): in one minute at 25° C., 1 mM (single compound) or 0.011 g nitrogen element in 100 mL (composition), pH 8.5; for change of ABTS initial absorbance: reaction solution A, FIG. 2
Excerpt: In the present specification, the absorbance of a solution containing ABTS (ABTS solution), at a wavelength of 436 nm, is defined as an ABTS initial absorbance (A436). In the present specification, the ABTS initial absorbance (A436) reduction rate (%) of the activity improving agent is defined to be a reduction rate (%) of the absorbance of a mixed solution, which contains the above ABTS solution and the above activity improving agent, at a wavelength of 436 nm in one minute, with respect to the ABTS initial absorbance (A436) (100%). Note that the ABTS solution is a solution in which the concentration of ABTS is adjusted such that the absorbance (A436) at a wavelength of 436 nm is approximately 1.3 at an optical path length of 1.0 cm. The value “approximately 1.3” here is intended to mean a value in a range in which 1.3 is obtained by rounding the value to the first decimal place. Test Examples described later will explain specific methods for measuring the absorbance (A436) of the ABTS solution at a wavelength of 436 nm and the ABTS initial absorbance (A436) reduction rate (%) of the activity improving agent. ABTS is an abbreviation for 2,2′-azinobis(3-ethylbenzothiazoline-6-sulfonic acid).
In the present activity improving method, when the ABTS initial absorbance (A436) reduction rate (%) of the activity improving agent is measured, the concentration of the activity improving agent in the ABTS solution for measurement is set as follows: (a) the concentration is set to 1 mM, when the molecular weight of the activity improving agent is evident as in a case where the activity improving agent is made of a single compound; and (b) when the activity improving agent is a substance which is made of a composition having an inevident molecular weight, the content of nitrogen element is used as a reference and the concentration is set such that the content of nitrogen element derived from the activity improving agent is 0.011 g in 100 mL of the ABTS solution for measurement. Note that, in the above (b), the content of nitrogen element derived from the activity improving agent in the ABTS solution is a value calculated by the Kjeldahl method.
The following describes a specific evaluation method. ABTS employed was an ABTS manufactured by Roche Diagnostics K.K. Further, the ABTS was dissolved in a 50 mM glycine-KOH (pH 8.5) buffer so that the concentration of the ABTS became 2.0 mg/mL. An ABTS solution was thus prepared. The absorbance of the ABTS solution at a wavelength of 436 nm (ABTS initial absorbance (A436)) was measured at an optical path length of 1.0 cm, by using a molecular absorption spectrometer Spectra Max Plus 384 (manufactured by Molecular Devices Japan K.K.). As a result the absorbance was approximately 1.3. Next, 5 μL of an activity improving agent solution or a comparative substance solution was added to 195 μL of the ABTS solution, so that a reaction solution for evaluating ABTS (hereinafter, also referred to as “reaction solution A”) was prepared. […]

[2] = biological target: T1, recombinant BOD (bilirubin oxidase) derived from Myrothecium verrucaria MT-1 (Albifimbria verrucaria, UniProt Q12737); assay: BOD activity after leaving the BOD solution with an activity improving agent or comparative substance at 30° C. in a deoxygenated atmosphere (Test Example 1); assay type: biochemical; conditions: for Activity (%) Day 47: left 47 days at 30° C.; for Activity (%) Day 47 / Activity (%) Day 14: relative to Day 0, additive concentration as in Table 1; for Activity (%) Day 0: 30° C., additive concentration as in Table 1; for Activity (%) Day 14: left 14 days at 30° C.
T1 construct: made in house; host or cells: Aspergillus sp
T1 sequence (Q12737 39-572): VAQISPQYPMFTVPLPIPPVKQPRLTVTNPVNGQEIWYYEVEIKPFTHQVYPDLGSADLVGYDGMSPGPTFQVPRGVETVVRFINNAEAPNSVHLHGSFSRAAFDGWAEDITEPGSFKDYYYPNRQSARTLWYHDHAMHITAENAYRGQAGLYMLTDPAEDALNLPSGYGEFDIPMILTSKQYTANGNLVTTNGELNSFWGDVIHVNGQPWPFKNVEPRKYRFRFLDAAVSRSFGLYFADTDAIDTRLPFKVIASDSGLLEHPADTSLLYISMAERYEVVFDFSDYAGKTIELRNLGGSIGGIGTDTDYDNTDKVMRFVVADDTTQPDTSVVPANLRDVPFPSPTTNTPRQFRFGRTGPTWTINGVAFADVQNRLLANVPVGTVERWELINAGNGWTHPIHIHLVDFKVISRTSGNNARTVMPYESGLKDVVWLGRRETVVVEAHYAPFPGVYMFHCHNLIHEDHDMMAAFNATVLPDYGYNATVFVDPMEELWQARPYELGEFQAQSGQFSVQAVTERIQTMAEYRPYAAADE
Method: A BOD solution, which contains: a BOD; and the present activity improving agent or a comparative substance, was left in an environment at a temperature of 30° C. in a deoxygenated atmosphere for a certain period of time. After the BOD solution was left as above, improvement of the BOD activity by the present activity improving method was evaluated by measurement of the BOD activity.
In Test Example 1, a BOD gene derived from a Myrothecium verrucaria MT-1 (GenBank accession number: D12579.1) was introduced into an Aspergillus sp., and then a recombinant BOD (hereinafter, also referred to simply as “BOD”) expressed in the Aspergillus sp. was purified by using a well-known technique and then used as the BOD. The BOD gene derived from the Myrothecium verrucaria MT-1 was codon-optimized in accordance with a gene sequence of the Aspergillus sp., and then introduced into the Aspergillus sp. Further, the BOD thus purified was dissolved in a 50 mM glycine-KOH (pH 8.5) buffer so that the concentration of the BOD became 1.0 mg/mL. Then, a resultant solution was used as a BOD enzyme solution.
The enzymatic activity of the BOD was measured as follows. To 1780 μL of a 50 mM potassium phosphate buffer (pH 6.5), 200 μL of a 20 mM ABTS substrate solution was added, so that a mixed solution (1980 μL) was prepared. This mixed solution was incubated for 1 min at 37° C. Thereafter, 20 μL of a solution containing the BOD (specifically, a BOD solution for evaluation, which will be described later) was added to the mixed solution, and a resultant mixed solution (2 mL) was incubated at 37° C. While the mixed solution was incubated, the absorbance of the mixed solution at a wavelength of 436 nm was measured immediately after that addition of the BOD solution for evaluation (at 0 seconds) and thereafter every 20 seconds. On the basis of (i) the absorbance of the mixed solution at a wavelength of 436 nm immediately after the addition of the BOD solution for evaluation and (ii) the absorbance of the mixed solution at a wavelength of 436 nm after a lapse of 1 minute from the addition of the BOD solution for evaluation, calculation was carried out for obtaining an increase rate per minute of the absorbance of the mixed solution at a wavelength of 436 nm after the addition of the BOD solution for evaluation. The BOD activity (unit) in the BOD solution for evaluation was calculated from the increase rate. In the present specification, the amount of enzyme for oxidizing 1 μmol of ABTS per minute was defined as one unit.
A specific test method of Test Example 1 is as follows. To a BOD enzyme solution containing a BOD, one of the above-described present activity improving agents was added, so that a BOD solution (which is the BOD solution according to an embodiment of the present invention) was prepared. Further, one of the above-described comparative substances was added to the BOD enzyme solution, so that another BOD solution was prepared. In addition, still another BOD solution was prepared by adding, to the BOD enzyme solution, distilled water in place of the activity improving agent or the comparative substance, so that a control (denoted as Without additive in Tables 1 to 3) was prepared. The final concentration of the activity improving agent or the comparative substance in each of the above BOD solutions was shown in “mM” or “percentage (%)” (amount (g) of the activity improving agent or the comparative substance relative to 100 mL of the BOD solution) in Table 1.
Thereafter, one of these BOD solutions and a deoxygenating agent (Anaero Pack manufactured by Mitsubishi Gas Chemical Company, Inc.) were included in one container. Then, the container was sealed, so that a BOD container was prepared. The BOD container was left in an environment at a temperature of 30° C. in a deoxygenated atmosphere for 47 days (Table 2) or 14 days (Table 3). […]

[3] = Day 0 (start of leaving, set to 100%) of the 14-day test
[4] = Day 0 (start of leaving, set to 100%)

| SMILES | A436 reduction rate (%) [1] | Activity (%) Day 47 [2] | change of ABTS initial absorbance [1] | Activity (%) Day 0 [2, 3] | Activity (%) Day 14 [2] | Activity (%) Day 0 [2, 4] |
| --- | --- | --- | --- | --- | --- | --- |
| O[C@H](CS)[C@H](O)CS (racemic) [DTT, dithiothreitol, reference compound] | 87.81% | 0% | – | – | – | – |
| N.N.O=S(=O)(O)O [Ammonium sulfate, ammonium sulfate, reference compound] | 0.00% | – | does not change | 100% | 65% | – |
| N.O=C(O)CS [Ammonium thioglycolate, ammonium thioglycolate, reference compound] | 87.81% | 0% | – | – | – | 100% |
| NCCS [Cysteamine hydrochloride, cysteamine hydrochloride, reference compound] | 87.81% | 1% | – | – | – | – |
| O=C(CS)OCC(O)CO (stereo not shown) [GMT, glyceryl monothioglycolate, reference compound] | 87.81% | 1% | – | – | – | – |
| N[C@@H](CCC(=O)N[C@@H](CS)C(=O)NCC(=O)O)C(=O)O [Glutathione (reduced form), glutathione (reduced form)] | 87.81% | 113% | – | – | – | 100% |
| O=CC(=O)O [Glyoxylic acid, glyoxylic acid] | 0.33% | – | – | – | 194% | – |
| Cl.N[C@@H](CS)C(=O)O [L-cysteine hydrochloride] | 87.81% | 130% | – | – | – | – |
| CC(=O)N[C@@H](CS)C(=O)O [N-acetyl-L-cysteine] | 87.81% | 122% | – | – | – | – |
| O=S([O-])[O-].[Na+].[Na+] [Sodium sulfite, sodium sulfite] | 87.81% | 162% | – | – | – | 100% |
| Cc1c(C)c2c(c(C)c1O)CCC(C)(C(=O)O)O2 (stereo not shown) [Trolox] | 83.90% | 251% | – | – | – | – |
| NC(N)=O [Urea, urea, reference compound] | 0.00% | – | does not change | 100% | 56% | – |
